The text below walks through data of paper PMC12668310, “High‐Throughput Synthesis and Screening of a Cyanimide Library Identifies Selective Inhibitors of ISG15‐Specific Protease mUSP18” (Angewandte Chemie (International Ed. in English), 2025).

For one assay, the target named is T1, USP7 (Homo sapiens, UniProt Q93009).
T1 construct: (1-1102); GST (cleaved yes); made in house
Briefly: IC50 determination, fluorogenic Ub-Rho-morpholine activity assay. The class given is biochemical. The settings on record: after 30 min incubation; purified compound.

The target in another assay is USP16 (Homo sapiens, UniProt Q9Y5T5). Briefly: biochemical.
Another assay has as its target T2, OTUB2 (Homo sapiens, UniProt Q96DC9).
T2 sequence (Q96DC9 1-234): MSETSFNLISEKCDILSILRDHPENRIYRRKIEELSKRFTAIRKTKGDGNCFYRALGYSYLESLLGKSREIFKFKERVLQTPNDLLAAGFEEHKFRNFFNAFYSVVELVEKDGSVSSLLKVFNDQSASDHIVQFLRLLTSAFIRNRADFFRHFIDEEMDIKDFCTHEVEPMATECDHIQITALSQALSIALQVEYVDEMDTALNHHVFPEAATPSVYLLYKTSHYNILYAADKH
Description: biochemical.

Assay [1] addresses T3, USP30 (Homo sapiens, UniProt Q70CQ3).
T3 sequence (Q70CQ3 57-517): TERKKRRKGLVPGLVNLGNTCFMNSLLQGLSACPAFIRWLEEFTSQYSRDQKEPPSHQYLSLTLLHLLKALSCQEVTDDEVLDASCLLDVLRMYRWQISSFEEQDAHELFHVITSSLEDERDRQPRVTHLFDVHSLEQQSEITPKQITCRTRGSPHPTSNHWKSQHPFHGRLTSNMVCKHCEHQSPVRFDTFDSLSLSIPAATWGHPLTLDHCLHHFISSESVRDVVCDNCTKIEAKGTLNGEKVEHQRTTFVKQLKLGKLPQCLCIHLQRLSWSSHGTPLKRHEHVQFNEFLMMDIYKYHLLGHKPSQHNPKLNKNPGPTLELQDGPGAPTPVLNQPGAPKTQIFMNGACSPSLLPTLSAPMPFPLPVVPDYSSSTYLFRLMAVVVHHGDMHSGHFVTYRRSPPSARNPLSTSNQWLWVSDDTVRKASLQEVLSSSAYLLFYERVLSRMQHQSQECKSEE
Briefly: High-throughput screening, Ub-RhoMP, single dose 1.25 µM. The class given is biochemical. Further details: USP30 CD (57-517); purchased Ubiquigent 64-0057-050. The settings on record: crude in-plate synthesized compound, 1.25 µM assuming full conversion. The procedure: Since the in‐plate synthesis was conducted in 1536‐well Echo plates, the compounds could readily be transferred from these plates into 1536‐well assay plates using acoustic liquid dispensing (Figure 2a) and subjected to HTS. We screened the whole 7536 compound library against a panel of twelve enzymes, including three DUBs from the UCH family, two DUBs from the OTU family, five DUBs from the USP family, plus ISG15 protease USP18, and SUMO protease SENP1. Each compound was tested at a single dose of 1.25 µM, assuming full conversion (10 mM in DMSO of the formed products) during the in‐plate synthesis, using the fluorogenic assay described above. […] The compounds are sorted by the amine building blocks (BB1‐16), and within each BB, sorted by carboxylic acid (CA1‐471), thereby providing a comprehensive and systematic overview of the overall inhibition by each BB and CA combination. Some interesting patterns can be obtained from this map. […] Indeed, BB10 is the privileged scaffold for UCHL1 as it originates from UCHL1 inhibitor 5 (Figure 1). […] On the other hand, OTUD1 and USP32 show a much higher hit rate, and this is even more pronounced for USP30 and ISG15 protease mUSP18, each showing many active compounds distributed over several BB's.
Purified recombinant enzymes used in this study
High-throughput screening
The screens were performed at room temperature in “flat bottom, non-treated, black […]
µM. The compounds (10 nL each) were transferred from the 1 mM daughter plates to the […]
Four wells containing DMSO
(10 nL) and four wells containing NEM (10 mM final concentration) were used in each plate […]
solution (1.33x final concentration) was added to each well, followed by incubation for 30 min.
Next, 2 µL of a substrate solution (4x final concentration) was added to each well (Ub-RhoMP[2]
After 1h or 2h incubation the
The percentage inhibition was calculated for each well using the […]
Where FIx is the fluorescence intensity of each well, FIpos is the average fluorescence intensity of the positive (NEM) control wells, and FIneg is the average fluorescence intensity of the negative (DMSO) control wells.

The next assay concerns the target T4, USP32 (Homo sapiens, UniProt Q8NFA0).
T4 construct: (1-1604); His-tag (N); made in house
Description: IC50 determination, fluorogenic Ub-Rho-morpholine activity assay. The class given is biochemical. To be noted: after 30 min incubation; purified compound.

A further assay deals with T5, UCHL3 (Homo sapiens, UniProt P15374).
T5 construct: (1-230); made in house
T5 sequence (P15374 1-230): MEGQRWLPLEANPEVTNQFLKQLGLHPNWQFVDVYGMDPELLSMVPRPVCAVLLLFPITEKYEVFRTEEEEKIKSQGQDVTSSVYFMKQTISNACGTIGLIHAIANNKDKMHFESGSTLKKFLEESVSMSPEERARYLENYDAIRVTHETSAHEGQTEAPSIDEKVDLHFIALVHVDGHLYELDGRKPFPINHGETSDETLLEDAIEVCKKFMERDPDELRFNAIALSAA
Described as above. Type of assay: biochemical. To be noted: after 30 min incubation; purified compound.

Assay [2] deals with T3, USP30. Description: biochemical.
Description: This panel included five proteases from the USP family, two from the UCH family, and one OTU. The IC50 values were determined in a well‐established biochemical activity assay using the fluorogenic substrate Ub‐Rho‐morpholine.^[ [33] ^] For USP18, which is unreactive to Ub but specific for ISG15, we used the ISG15CT‐Rho‐morpholine (consisting of the C‐terminal domain of ISG15) substrate to monitor its activity (see Supporting Information for preparation of this substrate).
(§1) Enzymes were pre-incubated with a concentration series of the compounds for 30 minutes at
(§2) room temperature, before addition of the substrate and direct read-out by fluorescence
(§3) intensity. Data is presented as mean ± SD, n=3.
room temperature, followed by the addition of substrate and direct read-out by fluorescence
IC50 and kinact/KI determination
(§4) The assays were performed at room temperature in “nonbinding surface flat bottom low flange”
(§5) TrisꞏHCl, 100 mM NaCl, pH 7.6, 2.0 mM cysteine, 1 mg/mL 3-[(3-cholamidopropyl)-
(§6) dimethylammonio]propanesulfonic acid (CHAPS), and 0.5 mg/mL γ-globulins from bovine
(§7) blood (BGG). […] The compounds were dissolved in 10
(§8) mM DMSO stocks, and appropriate volumes were transferred to the empty plates using a
(§9) Labcyte Echo550 acoustic dispenser. A DMSO back-fill was performed to obtain equal volumes of DMSO (400 μL) in each well. N-ethylmaleimide (NEM, 10 mM) was used a positive
(§10) steps were performed on a Biotek MultiflowFX liquid dispenser. A 10 μL portion of buffer was added and the plate was vigorously shaken for 20s. Next, 5 μL of recombinant enzyme (4x final concentration) was added followed by incubation for 1h. A 5 μL portion of the substrate
(§11) (Ub-RhoMP[2] for all DUBs, ISG15ct-RhoMP (vide supra) for USP18 and Z-FR-AMC [Bachem,
(§12) RhoMP, 10 µM for Z-FR-AMC), and the increase in fluorescence over time was recorded using
(§13) excitation 360 nm, emission 450 nm for AMC). The initial enzyme velocities were calculated
(§14) from the slopes, normalized to the positive and negative controls, and plotted against the
(§15) inhibitor concentrations using the built-in equation “[inhibitor] vs response − variable slope
(§16) (four parameters), least-squares fit” with constraints “Bottom = 0” and “Top = 100” in GraphPad
(§17) Prism 7 software to obtain the IC50 values.
(§18) All data fitting and calculations were done using GraphPad Prism 7 software.
In assay [3] the target is T6, mUSP18 (Mus musculus, UniProt Q9WTV6).
T6 construct: (46-368); His-tag (N); made in house
T6 sequence (Q9WTV6 46-368): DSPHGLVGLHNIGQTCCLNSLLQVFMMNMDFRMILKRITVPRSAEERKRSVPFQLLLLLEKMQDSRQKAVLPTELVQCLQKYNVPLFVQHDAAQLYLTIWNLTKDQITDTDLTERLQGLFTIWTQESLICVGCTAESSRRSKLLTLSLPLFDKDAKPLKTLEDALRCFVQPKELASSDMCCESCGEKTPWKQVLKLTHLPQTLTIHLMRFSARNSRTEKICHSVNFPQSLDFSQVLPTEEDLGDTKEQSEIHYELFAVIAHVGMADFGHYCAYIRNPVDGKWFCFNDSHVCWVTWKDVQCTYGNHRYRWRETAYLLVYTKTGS
Description: IC50 determination, fluorogenic ISG15CT-Rho-morpholine activity assay. The class given is biochemical, murine. To be noted: after 30 min incubation; purified compound; ISG15CT-Rho-morpholine substrate.

For another assay, the target named is T7, UCHL1 (Homo sapiens, UniProt P09936).
T7 construct: (1-223); made in house
T7 sequence (P09936 1-223): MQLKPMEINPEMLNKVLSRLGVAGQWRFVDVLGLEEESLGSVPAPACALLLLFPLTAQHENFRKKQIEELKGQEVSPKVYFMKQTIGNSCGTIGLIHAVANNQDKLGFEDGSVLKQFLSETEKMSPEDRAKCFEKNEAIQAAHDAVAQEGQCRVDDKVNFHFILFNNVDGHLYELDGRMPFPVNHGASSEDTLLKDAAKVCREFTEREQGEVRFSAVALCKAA
Description: IC50 determination, fluorogenic Ub-Rho-morpholine activity assay. The class given is biochemical. The settings on record: after 30 min incubation; purified compound.

Assay [4] deals with T6, mUSP18. Briefly: High-throughput screening, ISG15ct-RhoMP, single dose 1.25 µM. Type of assay: biochemical, murine. To be noted: crude in-plate synthesized compound, 1.25 µM assuming full conversion; read-out: %inhibition mUSP18.

T1 sequence (Q93009 whole entry): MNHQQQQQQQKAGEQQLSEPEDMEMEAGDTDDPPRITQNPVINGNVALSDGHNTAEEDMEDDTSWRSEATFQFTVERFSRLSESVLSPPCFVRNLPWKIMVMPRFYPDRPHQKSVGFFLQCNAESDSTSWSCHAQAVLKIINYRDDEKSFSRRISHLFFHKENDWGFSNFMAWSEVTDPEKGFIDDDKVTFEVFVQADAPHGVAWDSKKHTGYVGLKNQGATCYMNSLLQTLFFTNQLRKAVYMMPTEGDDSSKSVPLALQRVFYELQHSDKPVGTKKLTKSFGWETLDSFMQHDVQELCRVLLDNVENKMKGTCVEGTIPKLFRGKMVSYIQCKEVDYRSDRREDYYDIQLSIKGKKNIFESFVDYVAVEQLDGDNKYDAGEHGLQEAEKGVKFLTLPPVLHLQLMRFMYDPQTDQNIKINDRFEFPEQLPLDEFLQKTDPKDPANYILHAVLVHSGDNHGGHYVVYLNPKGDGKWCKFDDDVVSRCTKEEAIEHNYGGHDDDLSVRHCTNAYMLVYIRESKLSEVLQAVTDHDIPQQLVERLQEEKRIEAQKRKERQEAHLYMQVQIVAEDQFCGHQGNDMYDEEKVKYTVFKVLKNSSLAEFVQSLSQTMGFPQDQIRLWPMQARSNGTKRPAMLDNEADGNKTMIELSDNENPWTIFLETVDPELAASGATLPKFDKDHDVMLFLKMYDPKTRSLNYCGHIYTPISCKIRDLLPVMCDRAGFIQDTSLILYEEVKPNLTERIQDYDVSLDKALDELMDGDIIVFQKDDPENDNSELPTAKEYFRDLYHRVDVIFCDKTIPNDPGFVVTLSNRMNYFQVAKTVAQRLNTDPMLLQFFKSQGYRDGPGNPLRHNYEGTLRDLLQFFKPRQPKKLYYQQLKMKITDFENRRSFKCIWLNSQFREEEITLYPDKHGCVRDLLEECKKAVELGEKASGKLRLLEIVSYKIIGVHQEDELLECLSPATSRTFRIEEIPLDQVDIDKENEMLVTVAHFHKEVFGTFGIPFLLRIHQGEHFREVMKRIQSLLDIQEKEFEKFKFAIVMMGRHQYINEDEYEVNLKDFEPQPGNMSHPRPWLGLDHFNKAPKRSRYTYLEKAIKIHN
T4 sequence (Q8NFA0 whole entry): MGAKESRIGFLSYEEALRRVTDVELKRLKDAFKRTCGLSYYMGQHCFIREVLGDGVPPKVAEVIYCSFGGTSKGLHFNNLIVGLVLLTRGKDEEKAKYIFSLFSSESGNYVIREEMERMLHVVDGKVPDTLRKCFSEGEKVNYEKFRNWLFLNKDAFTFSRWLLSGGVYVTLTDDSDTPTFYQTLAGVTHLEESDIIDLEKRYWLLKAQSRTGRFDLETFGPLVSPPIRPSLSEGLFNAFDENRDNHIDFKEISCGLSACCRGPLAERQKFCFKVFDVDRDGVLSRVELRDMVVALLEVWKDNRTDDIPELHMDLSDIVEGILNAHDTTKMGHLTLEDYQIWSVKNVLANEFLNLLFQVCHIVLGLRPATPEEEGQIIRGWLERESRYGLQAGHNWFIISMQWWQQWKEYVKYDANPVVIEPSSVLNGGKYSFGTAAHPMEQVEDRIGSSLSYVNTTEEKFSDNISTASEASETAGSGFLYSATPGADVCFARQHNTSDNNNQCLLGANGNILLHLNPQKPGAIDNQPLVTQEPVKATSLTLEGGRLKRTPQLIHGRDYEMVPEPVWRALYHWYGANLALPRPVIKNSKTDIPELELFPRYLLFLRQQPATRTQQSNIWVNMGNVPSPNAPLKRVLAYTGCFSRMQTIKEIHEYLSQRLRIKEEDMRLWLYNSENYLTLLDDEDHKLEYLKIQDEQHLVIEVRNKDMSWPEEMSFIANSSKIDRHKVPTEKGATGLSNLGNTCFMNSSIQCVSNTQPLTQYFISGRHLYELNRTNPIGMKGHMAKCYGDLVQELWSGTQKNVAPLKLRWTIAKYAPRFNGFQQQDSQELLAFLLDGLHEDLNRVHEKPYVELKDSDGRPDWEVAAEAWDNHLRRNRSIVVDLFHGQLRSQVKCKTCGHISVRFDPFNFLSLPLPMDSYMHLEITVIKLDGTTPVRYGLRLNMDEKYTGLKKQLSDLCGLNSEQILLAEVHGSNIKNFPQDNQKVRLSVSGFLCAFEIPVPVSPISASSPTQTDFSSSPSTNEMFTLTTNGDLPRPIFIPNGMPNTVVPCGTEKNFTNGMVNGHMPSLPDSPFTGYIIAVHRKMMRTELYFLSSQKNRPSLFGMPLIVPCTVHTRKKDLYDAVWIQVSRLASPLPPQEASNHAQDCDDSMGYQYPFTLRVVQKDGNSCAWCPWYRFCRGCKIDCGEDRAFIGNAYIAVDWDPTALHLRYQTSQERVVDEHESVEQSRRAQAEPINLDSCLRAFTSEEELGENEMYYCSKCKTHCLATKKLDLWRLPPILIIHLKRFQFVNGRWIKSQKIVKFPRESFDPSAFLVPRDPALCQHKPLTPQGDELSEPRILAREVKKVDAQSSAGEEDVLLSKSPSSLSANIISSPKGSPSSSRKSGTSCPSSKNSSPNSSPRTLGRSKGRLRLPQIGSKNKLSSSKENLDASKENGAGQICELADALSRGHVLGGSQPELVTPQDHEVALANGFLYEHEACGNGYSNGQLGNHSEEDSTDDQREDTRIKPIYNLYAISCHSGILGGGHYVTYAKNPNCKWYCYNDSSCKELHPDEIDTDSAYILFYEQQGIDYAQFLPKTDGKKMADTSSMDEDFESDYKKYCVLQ
USP16, sequence (Q9Y5T5 22-823): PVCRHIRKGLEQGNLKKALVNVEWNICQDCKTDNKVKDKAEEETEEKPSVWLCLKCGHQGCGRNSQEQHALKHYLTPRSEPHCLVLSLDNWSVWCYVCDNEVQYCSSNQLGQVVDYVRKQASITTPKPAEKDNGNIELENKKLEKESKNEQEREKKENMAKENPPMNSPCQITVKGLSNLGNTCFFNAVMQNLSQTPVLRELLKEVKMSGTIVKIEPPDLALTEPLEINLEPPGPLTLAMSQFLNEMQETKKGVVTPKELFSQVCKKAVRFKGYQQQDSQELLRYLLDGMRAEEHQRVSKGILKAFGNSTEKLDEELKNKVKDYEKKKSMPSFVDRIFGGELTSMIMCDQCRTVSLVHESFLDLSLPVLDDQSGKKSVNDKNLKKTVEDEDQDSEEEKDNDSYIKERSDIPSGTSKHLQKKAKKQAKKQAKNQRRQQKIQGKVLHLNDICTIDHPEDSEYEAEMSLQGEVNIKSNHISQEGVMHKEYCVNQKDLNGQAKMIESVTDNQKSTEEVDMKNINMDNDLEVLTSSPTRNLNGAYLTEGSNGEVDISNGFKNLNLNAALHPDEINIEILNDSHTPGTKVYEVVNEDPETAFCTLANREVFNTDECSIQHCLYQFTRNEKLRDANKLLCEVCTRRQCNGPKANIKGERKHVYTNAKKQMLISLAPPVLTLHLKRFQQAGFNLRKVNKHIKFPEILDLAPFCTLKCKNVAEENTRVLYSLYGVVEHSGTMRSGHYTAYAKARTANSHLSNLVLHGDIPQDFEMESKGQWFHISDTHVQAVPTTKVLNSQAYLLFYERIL
Description for OTUB2: (§19) This panel included five proteases from the USP family, two from the UCH family, and one OTU. The IC50 values were determined in a well‐established biochemical activity assay using the fluorogenic substrate Ub‐Rho‐morpholine.^[ [33] ^]
as §1, §2, §3
(§20) USP16 Full length N-terminal His-tag Q9Y5T5 In-house, [Mons, 2 nM
IC50 and kinact/KI determination
as §4, §5, §6, §7, §8, §9
steps were performed on a Biotek MultiflowFX liquid dispenser. […]
as §12
excitation 360 nm, emission 450 nm for AMC). The initial enzyme velocities were calculated […]
Description for USP16: as §19, §1, §2, §3, §20
IC50 and kinact/KI determination
as §4, §5, §6, §7, §8, §9, §10, §11, §12, §13, §14, §15, §16, §17, §18

In the case of `N#CN1CC[C@@H](NC(=O)c2cc(-c3cccc(Cl)c3)no2)C1` [Compound 1], the IC50 at USP7 was 42 µM; at USP16 it was 5.1 µM; on OTUB2, greater than 200 µM; against USP32 it was 0.53 µM; against UCHL3, 229 µM; against USP30 [2], 0.043 µM. In addition, the IC50 on mUSP18 [3] was 0.079 µM; on UCHL1 it was 54 µM. Besides, the “%inhibition USP30” value on USP30 [1] is reported as roughly 90%. Further, at mUSP18 [4], the inhibition at 1.25 µM was roughly 90%.

The term IC50 denotes the concentration needed to halve the response being measured. Usually inhibition stands for how much of the control response was suppressed.
